Consider 33 molecules from ChEMBL document CHEMBL3769315 (J Med Chem, 2016).

Series [1] can be described thus: Selectivity index, ratio of CC50 for human Huh7.5.1 cells infected with HCV JFH-1 virus to EC50 for HCV JFH-1 virus.
The nature of series [2]: Cytotoxicity against human Huh7.5.1 cells assessed as ATP level by luminescence analysis. The note with it: huh-7.
For the next series, the system named is Hepatitis C virus. Kind of series: microbe, parasite or virus in culture. It counts as functional, organism-based, Hepacivirus hominis. Conditions: JFH-1, Huh-7.5.1, 48 h.

As to `Clc1ccc([C@H](c2ccccc2)N2CCN(C3CCCCC3)CC2)cc1`, the selectivity ratio in series [1] came to 69. In addition, the half-maximal cytotoxic concentration (CC50) in series [2] came out at 12.3 µM. The same molecule yielded an EC50 with Hepatitis C virus of 177 nM.
On to `CN1CCC(N(c2ccccc2)c2ccccc2)CC1`, for which the selectivity ratio in series [1] came out at 21. For the same molecule, the CC50 in series [2] was 56.8 µM. The EC50 in the series with Hepatitis C virus stood at 2720 nM.
`Clc1ccc(C(c2ccc(Cl)cc2)N2CCCCC2)cc1`: the selectivity ratio in series [1] amounted to 4. In addition, the CC50 in series [2] is 69 µM. It took 17400 nM to reach a half-maximal effect in the series with Hepatitis C virus (EC50).
As for `[2H]C([2H])([2H])N1CCN([C@@H](c2ccccc2)c2ccc(Cl)cc2)CC1`, the CC50 in series [2] was determined as 77.9 µM. A half-maximal effect in the series with Hepatitis C virus (EC50) was put at 63 nM.
For `FC(F)(F)CN1CCN([C@H](c2ccccc2)c2ccc(Cl)cc2)CC1`, the EC50 in the series on Hepatitis C virus was more than 31600 nM.
`CC(C)CN1CCN([C@@H](c2ccccc2)c2ccc(Cl)cc2)CC1`: in series [1], the selectivity ratio was found to be 507. Also, in series [2], the CC50 amounted to 51.7 µM. For the same molecule, a half-maximal effect with Hepatitis C virus (EC50) was put at 102 nM.
Regarding `COc1ccc(CN2CCN([C@@H](c3ccccc3)c3ccc(Cl)cc3)CC2)c(OC)c1`, in series [1], the selectivity ratio worked out at 84. Also, in series [2], the CC50 is 38.4 µM. This molecule also had an EC50 in the series on Hepatitis C virus of 456 nM.
`Clc1ccc(C(c2ccccc2)N2CCNCC2)cc1` (racemic) [NORCHLORCYCLIZINE]: the selectivity ratio in series [1] amounted to 297. For the same molecule, in series [2], the CC50 amounted to 10.4 µM. In the series with Hepatitis C virus, the EC50 turned out to be 35 nM.
In the case of `CN1CCC(N(c2ccccc2)c2ccc(OC(C)(C)C)cc2)CC1`, the selectivity ratio in series [1] came out at 222. Moreover, the CC50 in series [2] came out at 78.7 µM. This molecule showed an EC50 with Hepatitis C virus of 354 nM.
In turn, `O=C(O)COCCN1CCN(C(c2ccccc2)c2ccc(Cl)cc2)CC1` (racemic) [CETIRIZINE] displayed an EC50 in the series on Hepatitis C virus of more than 31600 nM.
As to `CC(=O)NCCOCCOCCOCCOCCN1CCN(C(c2ccccc2)c2ccc(Cl)cc2)CC1` (racemic), the selectivity ratio in series [1] is more than 588. In series [2], the CC50 is more than 100 µM. In the series on Hepatitis C virus, this molecule gave an EC50 of 170 nM.
On the same counts, the results for `c1ccc(C(c2ccccc2)c2ccncc2)cc1` are less than 2, 65.1 µM and more than 31600 nM.
For `CC(C)N1CCN([C@@H](c2ccccc2)c2ccc(Cl)cc2)CC1`, the selectivity ratio in series [1] amounted to 2490. Moreover, the CC50 in series [2] was found to be 32.4 µM. In the series on Hepatitis C virus, the EC50 is 13 nM.
In the same order, the values of `CC(C)CN1CCN([C@H](c2ccccc2)c2ccc(Cl)cc2)CC1` are 251, 58.2 µM and 232 nM.
Turning to `Clc1ccc(C(c2ccc(Cl)cc2)N2CCOCC2)cc1`, the selectivity ratio in series [1] is 2. Moreover, the CC50 in series [2] is 62.1 µM. Moreover, the response in the series on Hepatitis C virus was half-maximal at 29700 nM (EC50).
As to `CCCN1CCN([C@@H](c2ccccc2)c2ccc(Cl)cc2)CC1`, the selectivity ratio in series [1] turned out to be 1240. For the same molecule, the CC50 in series [2] was 39.7 µM. In the series on Hepatitis C virus, the EC50 is 32 nM.
As to `CN1CCCN(C(c2ccccc2)c2ccc(Cl)cc2)CC1` (racemic) [HOMOCHLORCYCLIZINE], in series [1], the selectivity ratio worked out at 225. In series [2], the CC50 was found to be 12.8 µM. In addition, a half-maximal effect with Hepatitis C virus (EC50) was put at 57 nM.
On the same counts, the results for `OCCOCCN1CCN(C(c2ccccc2)c2ccc(Cl)cc2)CC1` (racemic) [HYDROXYZINE] are 1330, 42.6 µM and 32 nM.
As to `c1ccc(C(c2ccccc2)C2CCNCC2)cc1`, in series [1], the selectivity ratio stood at 451. For the same molecule, the cytotoxic concentration (CC50) in series [2] is 32.5 µM. The same molecule yielded an EC50 in the series on Hepatitis C virus of 72 nM.
As to `CCCCN1CCN([C@@H](c2ccccc2)c2ccc(Cl)cc2)CC1`, the selectivity ratio in series [1] stood at 740. Besides, the CC50 in series [2] is 31.1 µM. In the series on Hepatitis C virus, this molecule came in with an EC50 of 42 nM.
Consider `CC(C)(C)OC(=O)NCCOCCOCCOCCOCCN1CCN(C(c2ccccc2)c2ccc(Cl)cc2)CC1` (racemic), for which the selectivity ratio in series [1] turned out to be 95. Moreover, in series [2], the CC50 was found to be 19 µM. The molecule also yielded an EC50 in the series with Hepatitis C virus of 199 nM.
In the same order, the values of `Clc1ccc([C@@H](c2ccccc2)N2CCNCC2)cc1` are 391, 12.5 µM and 32 nM.
With `CCCN1CCN([C@H](c2ccccc2)c2ccc(Cl)cc2)CC1`, in series [1], the selectivity ratio is 2020. The CC50 in series [2] was determined as 48.5 µM. The molecule also displayed an EC50 in the series on Hepatitis C virus of 24 nM.
In the case of `Clc1ccc([C@H](c2ccccc2)N2CCN(C3CCCC3)CC2)cc1`, in series [1], the selectivity ratio worked out at 1600. The CC50 in series [2] was 30.4 µM. In addition, the half-maximal effective concentration (EC50) with Hepatitis C virus was determined as 19 nM.
In the case of `FC(F)(F)CN1CCN([C@@H](c2ccccc2)c2ccc(Cl)cc2)CC1`, the CC50 in series [2] was more than 100 µM. The EC50 in the series on Hepatitis C virus is more than 31600 nM.
Take `CC(=O)N1CCN([C@@H](c2ccccc2)c2ccc(Cl)cc2)CC1`: in series [1], the selectivity ratio amounted to 4. In series [2], the half-maximal cytotoxic concentration (CC50) was found to be 91.3 µM. Moreover, the EC50 in the series on Hepatitis C virus is 22000 nM.
On to `[2H]C([2H])([2H])N1CCN([C@H](c2ccccc2)c2ccc(Cl)cc2)CC1`, for which the CC50 in series [2] was determined as 46.7 µM. The same molecule gave an EC50 in the series with Hepatitis C virus of 40 nM.
Take `[2H]C([2H])([2H])CN1CCN([C@@H](c2ccccc2)c2ccc(Cl)cc2)CC1`: the CC50 in series [2] worked out at 71.3 µM.
Regarding `O=C1c2ccccc2C(=O)N1CCOCCN1CCN(C(c2ccccc2)c2ccc(Cl)cc2)CC1` (racemic), the selectivity ratio in series [1] is more than 65. Besides, the CC50 in series [2] is more than 100 µM. Further, the concentration for a half-maximal effect (EC50) in the series on Hepatitis C virus came out at 1540 nM.
As to `CCCCN1CCN([C@H](c2ccccc2)c2ccc(Cl)cc2)CC1`, the selectivity ratio in series [1] is 209. Further, the CC50 in series [2] was determined as 40.8 µM. This molecule also gave an EC50 with Hepatitis C virus of 195 nM.
On the same counts, the results for `NC(=O)COCCN1CCN(C(c2ccccc2)c2ccc(Cl)cc2)CC1` (racemic) are more than 910, more than 100 µM and 103 nM.
`CCN1CCN(C2c3ccccc3-c3ccc(Br)cc32)CC1` (centres undefined): in series [1], the selectivity ratio was found to be 32. In addition, the CC50 in series [2] came to 53.1 µM. Also, the EC50 in the series with Hepatitis C virus was 1680 nM.
`CN1CCN([C@H](c2ccccc2)c2ccc(Cl)cc2)CC1`: the CC50 in series [2] was 37.5 µM. In the series on Hepatitis C virus, this molecule displayed an EC50 of 20 nM.

One may read the CC50 as the concentration at which the toxic effect on the cells reaches its halfway point. The term EC50 denotes the concentration needed to bring the measured effect to its halfway point. A low value points to higher potency in that assay.
